Measured values from patent publication US11130769B2 (Prelude Therapeutics Incorporated, priority 2018, dated 2021).
Read-outs that look alike come from different tables or passages of the source.

Tests used:
H929 cells = test: Cell viability assay (H929 10 FBS); format: cell-based; details: Homo sapiens, NCI-H929, 24 hours, read-out: H929_10FBS IC50
In short: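 ATP-based luminescence (CellTiter-Glo or ATPlite 1 Step, 30-60 min at RT) gauged viability of H929 myeloma cells after 24 h compound treatment at 37 °C. Cells plated at 4000 per well in 10% FBS RPMI 1640 supplemented with pyruvate, HEPES and glucose.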

MCL-1 = MCL-1 (Homo sapiens (Human), UniProt Q07820); test: Cell free Mcl-1:Bim affinity assay (fluorescence polarization competition); format: binding; details: 15 nM MCL-1, 5 nM FITC-Bim, 1 hour at room temperature, read-out: BIM_Ki
MCL-1, sequence (Q07820 whole entry): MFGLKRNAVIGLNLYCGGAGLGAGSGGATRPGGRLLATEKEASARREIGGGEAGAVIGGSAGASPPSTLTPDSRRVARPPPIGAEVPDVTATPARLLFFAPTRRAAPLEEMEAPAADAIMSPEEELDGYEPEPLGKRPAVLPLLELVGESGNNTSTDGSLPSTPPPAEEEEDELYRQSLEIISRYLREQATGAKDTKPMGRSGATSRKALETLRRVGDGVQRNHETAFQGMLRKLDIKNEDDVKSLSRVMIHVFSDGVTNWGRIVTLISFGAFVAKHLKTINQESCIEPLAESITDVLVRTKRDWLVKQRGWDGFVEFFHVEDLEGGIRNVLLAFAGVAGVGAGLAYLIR
In short: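 Fluorescence polarization competition: 10-point 3-fold compound dilutions displaced 5 nM FITC-Bim from 15 nM MCL-1 over 1 h at room temperature. Ki was derived from the fitted IC50 using the Nikolovska-Coleska equation, with percent inhibition normalized to DMSO and positive controls.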

SMILES: CN(C)C(=O)O[C@H]1/C=C/COC2(CC2)C(=O)NS(=O)(=O)c2ccc3c(c2)N(C[C@@H]2CC[C@H]21)C[C@@]1(CCCc2cc(Cl)ccc21)CO3 [Example 41, [(3R,6R,7S,8E,22S)-6′-Chloro-12,12-ethylene-13,15,15-trioxo-spiro[11,20-dioxa-15-thia-1,14-diazatetracyclo[14.7.2.03,6.019,24]pentacosa-8,16,18,24-tetraene-22,1′-tetralin]-7-yl] N,N-dimethylcarbamate]
- IC50 (H929 cells): < 500 nM
- Ki (MCL-1; class symbols): < 1 nM

SMILES: CNC1CN(C(=O)O[C@H]2/C=C/COC(C)(C)C(=O)NS(=O)(=O)c3ccc4c(c3)N(C[C@@H]3CC[C@H]32)C[C@@]2(CCCc3cc(Cl)ccc32)CO4)C1 [Example 156, [(3R,6R,7S,8E,22S)-6′-Chloro-12,12-dimethyl-13,15,15-trioxo-spiro[11,20-dioxa-15-thia-1,14-diazatetracyclo[14.7.2.03,6.019,24]pentacosa-8,16,18,24-tetraene-22,1′-tetralin]-7-yl] 3-(methylamino)azetidine-1-carboxylate]
- IC50 (H929 cells): < 500 nM
- Ki (MCL-1; class symbols): < 1 nM

SMILES: CO[C@@H]1/C=C/COC2(CC2)C(=O)NS(=O)(=O)c2ccc3c(c2)N(C[C@@H]2CC[C@H]21)C[C@@]1(CCCc2cc(Cl)ccc21)CO3 [Example 29, (3R,6R,7R,8E,22S)-6′-Chloro-7-methoxy-12,12-ethylene-15,15-dioxo-spiro[[11,20]dioxa-15-thia-1,14-diazatetracyclo[14.7.2.03,6.019,24]pentacosa[8,16(25),17,19(24)]tetraene-22,1′-tetralin]-13-one]
- IC50 (H929 cells): < 1000 nM
- Ki (MCL-1; class symbols): < 1 nM

SMILES: COCC[C@H]1C(=O)NS(=O)(=O)c2ccc3c(c2)N(C[C@@H]2CC[C@H]2[C@H](OC)/C=C/C[C@@H]1C)C[C@@]1(CCCc2cc(Cl)ccc21)CO3 [Example 89, (3R,6R,7R,8E,11S,12R,22S)-6′-Chloro-7-methoxy-12-(2-methoxyethyl)-1-methyl-15,15-dioxo-spiro[20-oxa-15-thia-1,14-diazatetracyclo[14.7.2.03,6.019,24]pentacosa-8,16,18,24-tetraene-22,1′-tetralin]-13-one]
- IC50 (H929 cells): > 1000 nM
- Ki (MCL-1; class symbols): 1 to 100 nM

SMILES: CO[C@H]1CCCCC(=O)NS(=O)(=O)c2ccc3c(c2)N(C[C@@H]2CC[C@H]21)C[C@@]1(CCCc2cc(Cl)ccc21)CO3 [Example 77, (3R,6R,7S,21S)-6′-Chloro-7-methoxy-14,14-dioxo-spiro[19-oxa-14-thia-1,13-diazatetracyclo[13.7.2.03,6.018,23]tetracosa-15,17,23-triene-21,1′-tetralin]-12-one]
- IC50 (H929 cells): > 1000 nM
- Ki (MCL-1; class symbols): 1 to 100 nM

SMILES: O=C(O[C@H]1/C=C/COC2(CCC2)C(=O)NS(=O)(=O)c2ccc3c(c2)N(C[C@@H]2CC[C@H]21)C[C@@]1(CCCc2cc(Cl)ccc21)CO3)N1CCC1 [Example 232, [(3R,6R,7S,8E,22S)-6′-Chloro-12,12-(1,3-propylene)-13,15,15-trioxo-spiro[11,20-dioxa-15-thia-1,14-diazatetracyclo[14.7.2.03,6.019,24]pentacosa-8,16(25),17,19(24)-tetraene-22,1′-tetralin]-7-yl] N,N-1,3-propylene carbamate]
- IC50 (H929 cells): < 500 nM
- Ki (MCL-1; class symbols): < 1 nM

SMILES: CO[C@@H]1CCN(C(=O)O[C@H]2/C=C/CN(C)C(C)(C)C(=O)NS(=O)(=O)c3ccc4c(c3)N(C[C@@H]3CC[C@H]32)C[C@@]2(CCCc3cc(Cl)ccc32)CO4)C1 [Example 215, [(3R,6R,7S,8E,22S)-6′-Chloro-11,12,12-trimethyl-13,15,15-trioxo-spiro[20-oxa-15-thia-1,11,14-triazatetracyclo[14.7.2.03,6.019,24]pentacosa-8,16,18,24-tetraene-22,1′-tetralin]-7-yl] (3R)-3-methoxypyrrolidine-1-carboxylate]
- IC50 (H929 cells): < 500 nM
- Ki (MCL-1; class symbols): < 1 nM

SMILES: CN(C(=O)O[C@H]1/C=C/COC(C)(C)C(=O)NS(=O)(=O)c2ccc3c(c2)N(C[C@@H]2CC[C@H]21)C[C@]1(CO3)OCCc2cc(Cl)ccc21)C1CCOCC1 [Example 300, [(3R,6R,7S,8E,22R)-6′-Chloro-12,12-dimethyl-13,15,15-trio-spiro[11,20-dioxa-15-thia-1,14-diazatetracyclo[14.7.2.03,6.019,24]pentacosa-8,16,18,24-tetraene-22,1′-isochromane]-7-yl] N-methyl-N-tetrahydropyran-4-yl-carbamate]
- IC50 (H929 cells): < 1000 nM
- Ki (MCL-1; class symbols): < 1 nM

SMILES: COC[C@@H]1CC/C=C/[C@@H](OC)[C@@H]2CC[C@H]2CN2C[C@@]3(CCCc4cc(Cl)ccc43)COc3ccc(cc32)S(=O)(=O)NC1=O [Example 96, (3R,6R,7R,8E,12S,22S)-6′-Chloro-12-(methoxymethyl)-7-methoxy-15,15-dioxo-spiro[20-oxa-15-thia-1,14-diazatetracyclo[14.7.2.03,6.019,24]pentacosa-8,16,18,24-tetraene-22,1′-tetralin]-13-one]
- IC50 (H929 cells): > 1000 nM
- Ki (MCL-1; class symbols): < 1 nM

SMILES: CO[C@@H]1/C=C/CN(C)C2(CCC2)C(=O)NS(=O)(=O)c2ccc3c(c2)N(C[C@@H]2CC[C@H]21)C[C@@]1(CCCc2cc(Cl)ccc21)CO3 [Example 120, (3R,6R,7R,8E,22S)-6′-Chloro-7-methoxy-11-methyl-12,12-(1,3-propylene)-15,15-dioxo-spiro[20-oxa-15-thia-1,11,14-triazatetracyclo[14.7.2.03,6.019,24]pentacosa[8,16(25),17,19(24)]tetraene-22,1′-tetralin]-13-one]
- IC50 (H929 cells): < 1000 nM
- Ki (MCL-1; class symbols): 1 to 100 nM

SMILES: CN(C(=O)O[C@H]1/C=C/CN(C)C2(CCC2)C(=O)NS(=O)(=O)c2ccc3c(c2)N(C[C@@H]2CC[C@H]21)C[C@@]1(CCCc2cc(Cl)ccc21)CO3)C1COC1 [Example 240, [(3R,6R,7S,8E,22S)-6′-Chloro-11-methyl-12,12-(1,3-propylene)-13,15,15-trioxo-spiro[20-oxa-15-thia-1,14-triazatetracyclo[14.7.2.03,6.019,24]pentacosa-8,16,18,24-tetraene-22,1′-tetralin]-7-yl] N-methyl-N-(oxetan-3-yl)carbamate]
- IC50 (H929 cells): < 500 nM
- Ki (MCL-1; class symbols): < 1 nM

SMILES: CO[C@H]1/C=C/C[C@H](C)[C@@H](C)C(=O)NS(=O)(=O)c2ccc3c(c2)N(C[C@@H]2CC[C@H]21)C[C@@]1(CCCc2cc(Cl)ccc21)CO3 [Example 79, (3R,6R,7S,8E,11S,12R,22S)-6′-Chloro-7-methoxy-11,12-dimethyl-15,15-dioxo-spiro[20-oxa-15-thia-1,14-diazatetracyclo[14.7.2.03,6.019,24]pentacosa-8,16,18,24-tetraene-22,1′-tetralin]-13-one]
- IC50 (H929 cells): > 1000 nM
- Ki (MCL-1; class symbols): 1 to 100 nM

SMILES: CO[C@@H]1/C=C/CNC(=O)NS(=O)(=O)c2ccc3c(c2)N(C[C@@H]2CC[C@H]21)C[C@@]1(CCCc2cc(Cl)ccc21)CO3 [Example 131, (3R,6R,7R,8E,21S)-6′-chloro-7-methoxy-14,14-dioxo-spiro[19-oxa-14-thia-1,11,13-triazatetracyclo[13.7.2.03,6.018,23]tetracosa-8,15,17,23-tetraene-21,1′-tetralin]-12-one]
- IC50 (H929 cells): > 1000 nM
- Ki (MCL-1; class symbols): 1 to 100 nM

SMILES: CC1(C)OC/C=C/[C@H](OC(=O)NC2CCOCC2)[C@@H]2CC[C@H]2CN2C[C@@]3(CCOc4cc(Cl)ccc43)COc3ccc(cc32)S(=O)(=O)NC1=O [Example 305, [(3R,6R,7S,8E,22S)-7′-Chloro-12,12-dimethyl-13,15,15-trioxo-spiro[11,20-dioxa-15-thia-1,14-diazatetracyclo[14.7.2.03,6.019,24]pentacosa-8,16,18,24-tetraene-22,4′-chromane]-7-yl] N-tetrahydropyran-4-yl-carbamate]
- IC50 (H929 cells): < 500 nM
- Ki (MCL-1; class symbols): < 1 nM

SMILES: O=C(NS(=O)(=O)c1ccc2c(c1)N(CC1CCC1)CC1(CCCc3cc(Cl)ccc31)CO2)N1CCCC1 (stereo not drawn) [Example 24, N-[6′-Chloro-5-(cyclobutylmethyl)spiro[2,4-dihydro-1,5-benzoxazepine-3,1′-tetralin]-7-yl]sulfonylpyrrolidine-1-carboxamide]
- IC50 (H929 cells): > 1000 nM
- Ki (MCL-1; numeric values): 6 nM

SMILES: CC1(C)OC/C=C/[C@H](OC(=O)N2CC(F)C2)[C@@H]2CC[C@H]2CN2C[C@@]3(CCCc4cc(Cl)ccc43)COc3ccc(cc32)S(=O)(=O)NC1=O [Example 165, [(3R,6R,7S,8E,22S)-6′-Chloro-12,12-dimethyl-13,15,15-trioxo-spiro[11,20-dioxa-15-thia-1,14-diazatetracyclo[14.7.2.03,6.019,24]pentacosa-8,16,18,24-tetraene-22,1′-tetralin]-7-yl] 3-fluoroazetidine-1-carboxylate]
- IC50 (H929 cells): < 500 nM
- Ki (MCL-1; class symbols): < 1 nM

SMILES: CN1CCN(CCNC(=O)O[C@H]2/C=C/COC(C)(C)C(=O)NS(=O)(=O)c3ccc4c(c3)N(C[C@@H]3CC[C@H]32)C[C@@]2(CCCc3cc(Cl)ccc32)CO4)CC1 [Example 149, [(3R,6R,7S,8E,22S)-6′-Chloro-12,12-dimethyl-13,15,15-trioxo-spiro[11,20-dioxa-15-thia-1,14-diazatetracyclo[14.7.2.03,6.019,24]pentacosa-8,16,18,24-tetraene-22,1′-tetralin]-7-yl] N-[2-(4-methylpiperazin-1-yl)ethyl]carbamate]
- IC50 (H929 cells): < 500 nM
- Ki (MCL-1; class symbols): < 1 nM

SMILES: CC(C)(C)OC(=O)N1CCC(CC(=O)NS(=O)(=O)c2ccc3c(c2)N(CC2CCC2)CC2(CCCc4cc(Cl)ccc42)CO3)CC1 (stereo not drawn) [Example 22, tert-Butyl 4-[2-[[6′-chloro-5-(cyclobutylmethyl)spiro[2,4-dihydro-1,5-benzoxazepine-3,1′-tetralin]-7-yl]sulfonylamino]-2-oxo-ethyl]piperidine-1-carboxylate]
- IC50 (H929 cells): > 1000 nM
- Ki (MCL-1; numeric values): 57 nM
